From patent US8722687B2, “Imidazo [1,2-A]pyridine derivatives as FGFR kinase inhibitors for use in therapy” (Astex Therapeutics Ltd, priority 2009, dated 2014)

Experiments:
[1] = system: human prostate cancer PC3 cells; assay: EB1 cellular assay (Eb1 Comet assay, microtubule disruption); type: cell-based; conditions: PC-3, lowest active concentration: Eb1 foci absent in at least 50% of treated PC3 cells, 1 hour, read-out: Eb1 LAC
Experimental: The Eb1 Comet assay relies on the detection of the Eb1 protein at the plus end of polymerizing microtubules (Mimori-Kiyosue, 2000) using indirect immunofluorescence. Disruption of microtubule dynamics through de-polymerization or stabilization results in a de-localization of Eb1 from the growing microtubule ends and this is visualized by the disappearance of Eb1 containing cytoplasmic foci.
Briefly, human prostate cancer PC3 cells obtained from the American Type Culture Collection were grown in 96-well plates (Greiner, cat. no. 655090) in HAM's F12 medium as recommended by the provider (ATCC). The cells were treated for 1 hour at 37° C. with compounds dissolved in DMSO (0.6% final DMSO concentration). The culture medium was then removed by aspiration and the cells were fixed by adding cold methanol (−20° C.). After a 15 minutes incubation at −20° C., the cells were washed twice with DPBS (Gibco) containing 0.5% Triton X-100. Mouse Eb1 antibody (BD Transduction Laboratories, cat. no. 610534) was added to the cells (1/250 dilution in DPBS containing 1% BSA) and incubated overnight at room temperature. The antibody was subsequently removed and the cells washed twice with DPBS, 0.5% Triton X-100. Secondary goat anti-mouse antibody conjugated to Alexa 488 fluorescent dye (Molecular Probes) was added at a 1/500 dilution in DPBS, 1% BSA and incubated for 1 hour at 37° C. The cells were washed twice with DPBS, 0.5% Triton X-100 and then DPBS containing 0.5% Triton X-100 and 1/5000 Hoechst 33342 (Molecular Probes) was added. Microscopy based Eb1 foci visualization was carried out using an IN Cell Analyser 1000 (Amersham Biosciences) using a 20× objective. Compound dependent microtubule disruption was visually determined by the disappearance in Eb1 foci. The lowest active concentration (LAC) was determined as the concentration where Eb1 foci were absent in at least 50% of the treated cells. Herein the effects of test compounds are expressed as pLAC (the negative log value of the LAC-value)

Ba/F3-Flt3 cells = molecular target: T1, Ba/F3-Flt3 cells (Homo sapiens, UniProt P36888, cells depend on it, form not given); assay: Ba/F3-Flt3 assay (Alamar Blue); type: cell-based, murine; conditions: without IL3
T1 construct: Ba/F3-flt3 − IL3 pIC50; other: without IL3
T1 sequence (P36888 1-993): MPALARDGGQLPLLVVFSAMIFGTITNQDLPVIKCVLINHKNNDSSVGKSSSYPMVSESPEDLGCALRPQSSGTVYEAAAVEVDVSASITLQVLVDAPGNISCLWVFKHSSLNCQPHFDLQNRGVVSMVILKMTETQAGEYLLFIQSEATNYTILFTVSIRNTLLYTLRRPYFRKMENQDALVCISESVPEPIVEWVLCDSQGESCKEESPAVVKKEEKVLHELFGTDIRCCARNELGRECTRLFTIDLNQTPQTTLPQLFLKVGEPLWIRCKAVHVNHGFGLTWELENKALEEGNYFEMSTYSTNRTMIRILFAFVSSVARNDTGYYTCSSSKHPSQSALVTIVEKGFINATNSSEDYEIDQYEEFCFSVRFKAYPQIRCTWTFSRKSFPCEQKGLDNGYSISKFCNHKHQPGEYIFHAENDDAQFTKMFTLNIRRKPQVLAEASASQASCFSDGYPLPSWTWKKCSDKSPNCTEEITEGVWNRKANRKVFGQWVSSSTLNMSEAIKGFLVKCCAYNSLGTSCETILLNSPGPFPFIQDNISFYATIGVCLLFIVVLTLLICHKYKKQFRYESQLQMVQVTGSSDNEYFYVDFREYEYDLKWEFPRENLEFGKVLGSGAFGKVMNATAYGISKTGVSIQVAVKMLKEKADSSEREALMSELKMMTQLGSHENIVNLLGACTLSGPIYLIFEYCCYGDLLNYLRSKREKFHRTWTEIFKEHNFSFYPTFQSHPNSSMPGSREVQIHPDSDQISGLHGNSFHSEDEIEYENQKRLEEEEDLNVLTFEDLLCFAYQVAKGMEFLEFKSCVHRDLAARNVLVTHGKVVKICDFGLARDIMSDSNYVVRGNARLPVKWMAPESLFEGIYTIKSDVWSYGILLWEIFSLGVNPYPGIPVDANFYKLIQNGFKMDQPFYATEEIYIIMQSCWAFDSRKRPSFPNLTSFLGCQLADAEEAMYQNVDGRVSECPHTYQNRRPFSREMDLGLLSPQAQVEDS
In short: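 Ba/F3-Flt3 cells in phenol red-free RPMI-1640 with 10% FCS were plated, and compound dilutions were added 24 h later at 0.2% DMSO final. After 24 h at 37 °C, Alamar Blue was added for 4 h and fluorescence was read (ex 544/em 590 nm) to derive IC50. The IL3 condition added 10 ng/ml murine IL3 during compound exposure.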

| Ba/F3-flt3 − IL3 pIC50 (Ba/F3-Flt3 cells) | SMILES | minimal effective concentration [1] |
| --- | --- | --- |
| <5 | Cc1nnc(-c2ccn3c(-c4cc(NC(=O)NCC(F)(F)F)cc(OC(C)C)c4)cnc3c2)s1.Cl [Compound F-20, 1-{3-Isopropoxy-5-[7-(5-methyl-[1,3,4]thiadiazol-2-yl)-imidazo[1,2-a]pyridin-3-yl]-phenyl}-3-(2,2,2-trifluoro-ethyl)-urea] | 0.1 µM |
| <5 | CCOc1cc(NC(=O)NCC(F)(F)F)cc(-c2cnc3cc(-c4ccnc(C(F)(F)F)n4)ccn23)c1 [Compound F-16, 1-{3-Ethoxy-5-[7-(2-trifluoromethyl-pyrimidin-4-yl)-imidazo[1,2-a]pyridin-3-yl]-phenyl}-3-(2,2,2-trifluoro-ethyl)-urea] | > 10 µM |
| <5 | CC(C)Oc1cc(NC(=O)NCC(F)(F)F)cc(-c2cnc3cc(-c4nccc(C(C)C)n4)ccn23)c1 [Compound F-29, 1-{3-Isopropoxy-5-[7-(4-isopropyl-pyrimidin-2-yl)-imidazo[1,2-a]pyridin-3-yl]-phenyl}-3-(2,2,2-trifluoroethyl)-urea] | > 10 µM |
| <5 | CCNC(=O)Nc1cc(OC(C)C)cc(-c2cnc3cc(-c4nnc(C)s4)ccn23)c1 [Compound F-23, 1-Ethyl-3-{3-isopropoxy-5-[7-(5-methyl-[1,3,4]thiadiazol-2-yl)-imidazo[1,2-a]pyridin-3-yl]-phenyl}-urea] | 5 µM |
| <5 | CC(C)Oc1cc(NC(=O)NCC(F)(F)F)cc(-c2cnc3cc(OCCCO)ccn23)c1 [Compound F-18, 1-{3-[7-(3-Hydroxy-propoxy)-imidazo[1,2-a]pyridin-3-yl]-5-isopropoxy-phenyl}-3-(2,2,2-trifluoro-ethyl)-urea] | 5 µM |
| <5 | Cc1cn(-c2ccn3c(-c4cc(NC(=O)NCC(F)(F)F)cc(OC(C)C)c4)cnc3c2)cn1 [Compound F-28, 1-{3-Isopropoxy-5-[7-(4-methylimidazol-1-yl)-imidazo[1,2-a]pyridin-3-yl]-phenyl}-3-(2,2,2-trifluoro-ethyl)-urea] | 5 µM |
| <5 | CC(C)Oc1cc(NC(=O)NCC(F)(F)F)cc(-c2cnc3cc(OCCO)ccn23)c1 [Compound F-17, 1-{3-[7-(2-Hydroxy-ethoxy)-imidazo[1,2-a]pyridin-3-yl]-5-isopropoxy-phenyl}-3-(2,2,2-trifluoro-ethyl)-urea] | 3 µM |
| <5 | CC(C)Oc1cc(NC(=O)NCC(F)(F)F)cc(-c2cnc3cc(-c4nncs4)ccn23)c1.Cl [Compound F-19, 1-[3-Isopropoxy-5-(7-[1,3,4]thiadiazol-2-yl-imidazo[1,2-a]pyridin-3-yl)-phenyl]-3-(2,2,2-trifluoro-ethyl)-urea] | 3 µM |
| <5 | CC(C)Oc1cc(NC(=O)NCC(F)(F)F)cc(-c2cnc3cc(-c4nccc(C(C)(C)CO)n4)ccn23)c1 [Compound F-27, 1-(3-{7-[4-(2-Hydroxy-1,1-dimethylethyl)-pyrimidin-2-yl]-imidazo[1,2-a]pyridin-3-yl}-5-isopropoxy-phenyl)-3-(2,2,2-trifluoro-ethyl)-urea] | > 10 µM |
| <5 | CCOc1cc(NC(=O)NCC(F)(F)F)cc(-c2cnc3cc(-c4nnc(C)o4)ccn23)c1 [Compound F-15, 1-{3-Ethoxy-5-[7-(5-methyl-[1,3,4]oxadiazol-2-yl)-imidazo[1,2-a]pyridin-3-yl]-phenyl}-3-(2,2,2-trifluoro-ethyl)-urea] | 10 µM |

Further lines, the compound ahead of its results:

| SMILES | Ba/F3-flt3 − IL3 pIC50 (Ba/F3-Flt3 cells) | minimal effective concentration [1] |
| --- | --- | --- |
| CC(C)Oc1cc(NC(=O)NCC(F)(F)F)cc(-c2cnc3cc(C(=O)C4CC4)ccn23)c1 [Compound F-6, 1-[3-(7-Cyclopropanecarbonyl-imidazo[1,2-a]pyridin-3-yl)-5-isopropoxy-phenyl]-3-(2,2,2-trifluoro-ethyl)-urea] | <5 | 3 µM |
| Cc1nc(-c2ccn3c(-c4cc(NC(=O)NCC(F)(F)F)cc(OC(C)C)c4)cnc3c2)ccc1F [Compound F-3, 1-{3-[7-(5-Fluoro-6-methyl-pyridin-2-yl)-imidazo[1,2-a]pyridin-3-yl]-5-isopropoxy-phenyl}-3-(2,2,2-trifluoro-ethyl)-urea] | <5 | > 10 µM |
| CC(C)Oc1cc(NC(=O)NCC(F)(F)F)cc(-c2cnc3cc(-c4ncccn4)ccn23)c1 [Compound F-2, 1-[3-Isopropoxy-5-(7-pyrimidin-2-yl-imidazo[1,2-a]pyridin-3-yl)-phenyl]-3-(2,2,2-trifluoro-ethyl)-urea] | <5 | > 10 µM |
| CCNC(=O)Nc1cc(OC(C)C)cc(-c2cnc3cc(-c4nncs4)ccn23)c1 [Compound F-10, 1-Ethyl-3-[3-isopropoxy-5-(7-[1,3,4]thiadiazol-2-yl-imidazo[1,2-a]pyridin-3-yl)-phenyl]-urea] | 5.04 | 5 µM |
| Cc1nc(N)cc(-c2ccn3c(-c4cc(NC(=O)NCC(F)(F)F)cc(OC(C)C)c4)cnc3c2)n1 [Compound F-4, 1-{3-[7-(6-Amino-2-methyl-pyrimidin-4-yl)-imidazo[1,2-a]pyridin-3-yl]-5-isopropoxy-phenyl}-3-(2,2,2-trifluoro-ethyl)-urea] | <5 | 1 µM |
| CC(C)Oc1cc(NC(=O)NCC(F)(F)F)cc(-c2cnc3cc(-c4ccnc(C(F)(F)F)n4)ccn23)c1 [Compound F-8, 1-{3-Isopropoxy-5-[7-(2-trifluoromethyl-pyrimidin-4-yl)-imidazo[1,2-a]pyridin-3-yl]-phenyl}-3-(2,2,2-trifluoro-ethyl)-urea] | <5 | 5 µM |
| COCc1cc(NC(=O)NCC(F)(F)F)cc(-c2cnc3cc(-c4nnc(C)o4)ccn23)c1 [Compound F-7, 1-{3-Methoxymethyl-5-[7-(5-methyl-[1,3,4]oxadiazol-2-yl)-imidazo[1,2-a]pyridin-3-yl]-phenyl}-3-(2,2,2-trifluoro-ethyl)-urea] | <5 | 10 µM |
| COCc1cc(NC(=O)NCC(F)(F)F)cc(-c2cnc3cc(-c4ccnc(C(F)(F)F)n4)ccn23)c1 [Compound F-9, 1-{3-Methoxymethyl-5-[7-(2-trifluormethyl-pyrimidin-4-yl)-imidazo[1,2-a]pyridin-3-yl]-phenyl}-3-(2,2,2-trifluoro-ethyl)-urea] | <5 | 2 µM |
| CC(C)Oc1cc(NC(=O)NCC(F)(F)F)cc(-c2cnc3cc(-c4ncc(F)c(N)n4)ccn23)c1 [Compound F-1, 1-{3-[7-(4-Amino-5-fluoro-pyrimidin-2-yl)-imidazo[1,2-a]pyridin-3-yl]-5-isopropoxy-phenyl}-3-(2,2,2-trifluoro-ethyl)-urea] | <5 | > 10 µM |
